Measurements reported in patent publication US20110021471A1, “REDUCING Abeta42 LEVELS AND Abeta AGGREGATION” (priority 2007, published 2011).
Read-outs that look alike come from different tables or passages of the source.

Key:
H4 APPwt cells = assay: Immunoprecipitation-mass spectrometry of media from H4 APPwt cells; type: cell-based, human
Description: FIG. 14. Amyloid binding compounds alter the cleavage of Aβ similar to other established γ-secretase modulators Immunoprecipitation-mass spectrometry studies were conducted on media from H4 APPwt cells grown in the presence of test compounds for 16 hours. Conditions were: control (DMSO, 0.5%), sulindac sulfide (SS; 25 μM), chrysamine g (CG; 25 μM), and X-34 (25 μM). SS was included as a control GSM known to reduce Aβ42 and increase Aβ38. Spectra shown are representative of two experiments with 2-3 replicates each. Identified Aβ peptides based on calculated mass (m/z) are indicated above the peaks.

Tg2576 mice = assay: Acute oral dosing of Tg2576 mice, brain soluble Aβ after 4 hours; type: in vivo, mouse
Description: FIG. 2. Aβ modulating agents can inhibit Aβ aggregation, and agents that bind Aβ amyloid can modulate Aβ42 production. […] (C) Aβ42 modulating agents inhibit naturally secreted oligomer formation. 7PA2 cells were treated with fenofibrate, FT-1, or FT-9 at 50 μM and oligomers assessed by IP Western blotting. […] (D) FT-9, an Aβ42 reducing agent, can inhibit Aβ42 aggregation in vitro.
FIG. 13. Compounds that bind Aβ are GSMs in vitro and in vivo. (A) A cell-based screen of Aβ-binders identified molecules that increase Aβ42 (DAPH) or decrease Aβ42 (Bis-ANS, X-34 or chrysamine G (CG)). Data are mean±s.e.m., n=3. (B) X-34 is an Aβ42-lowering GSM. Changes in amyloid-β peptide amounts after X-34 treatment are shown. Data are presented as percentage control±s.e.m., n=3. EC50 values were calculated. […] NA, not applicable. (C) X-34 binds to APP(C100)-Flag and decreases labeling by GSM photoprobes. Biotin incorporation into APP by Fen-B and Flurbi-BpB is presented as percentage of control (peptide without X-34)±s.e.m., n=2. (D) X-34 lowers Aβ42 in Tg2576 mice after 4 h. […] Data are presented as amyloid-β percentage of control relative to vehicle±s.e.m. Animals per group (n). Asterisk, P,0.05; two asterisks, P,0.01; ANOVA with Dunnett's post-hoc analysis.
Finally, X-34 was tested for its ability to modulate Aβ42 amounts in an APP transgenic mouse (Tg2576).

[1] = test system: Human H4 neuroglioma cells expressing wild-type APP695 protein or CTF105; assay: Cell-based screens for amyloid-β modulation (H4 cells, ELISA); details: for EC50: Homo sapiens, cellular dose-response
From the text: Photoaffinity labelling. All experiments used the following general protocol. […] Cell-based screens for amyloid-β modulation. […] Statistical analysis.

APP wild-type cells = assay: Aβ modulation in APP wild-type cells; type: cell-based; details: APP wild-type cells; read-out: EC50, lowering of Aβ42
Description: (A) and (B) The sequences of wildtype (WT; A) APP and the mutated substrate (B) containing the homologous region (italic, underlined) of the NOTCH transmembrane domain (TMD) in APP where GSMs are hypothesized to bind. […] Bottom row, FT-1 ([…]) raised Aβ42 200% in APP wild-type cells (A); however, in APP-NOTCH TMD cells (B), FT-1 caused minimal changes in the Aβ42 (95%) or Aβ40 (90%) signal. Data are presented as amyloid-β percentage of control±s.e.m., n=3.
FIG. 19. Substitution of human Notch sequence in the APP transmembrane domain (TMD) changes sensitivity to modulation. (A) Site-directed mutagenesis was used to exchange the analogous region of the human Notch TMD (bold and underlined) for a section (bold and underlined) of wild-type APP (APPwt) we have shown to be labeled by GSMs. The new substrate (APP-Notch TMD) is cleaved by γ-secretase primarily after valine and alanine residues corresponding to 40 and 42 in APPwt (arrows). […] The beginning (1) N-terminal amino acid (AA) to the ending C-terminal AA is shown above each peak, with the molecular weight (m/z) below. 1-40 and 1-42 are detected as the two major species in APP-Notch TMD conditioned media. It should be noted that the mutagenesis strategy to create APPNotch TMD led to a single AA deletion relative to APPwt. […] Both cell lines were treated (6 hours) with L-685,458 (10 μM), which is hypothesized to target the active site aspartate residues, media was collected, and analyzed for changes in Aβ levels. […]
To test the hypothesis that mutation of the GSM binding site in APP should alter sensitivity to GSMs, a portion of the GSM binding site in APP was exchanged with the analogous region of human NOTCH (FIGS. 18A and 18B; FIG. 19). […] Although the molecular weight and abundance of each chimeric peptide differed from amyloid-β peptides from APP, the main species produced from the APP-NOTCH TMD construct had identical C-termini to Ab1-40 and Ab1-42, and could be quantified by enzyme-linked immunosorbent assays (ELISAs; FIG. 19). […]

O=C(O)c1cc(C=Cc2ccc(C=Cc3ccc(O)c(C(=O)O)c3)cc2)ccc1O [X-34, 1,4-bis(3-carboxy-4-hydroxyphenylethenyl)-benzene]
shorter amyloid-β (IP-MS) (H4 APPwt cells): increased amounts of shorter amyloid-β
Aβ33 levels (IP-MS) (H4 APPwt cells; 25 μM, 16 hours): raise Aβ33 levels more effectively than SS
levels of Aβ42 (IP-MS) (H4 APPwt cells; 25 μM, 16 hours): consistently decrease levels of Aβ42
Aβ40 in the brains (Tg2576 mice; 100 mg kg21, Tg2576 mice, 4 h): no effects
decrease of soluble Aβ42 in the brains (Tg2576 mice; 100 mg kg21, Tg2576 mice, 4 h): 35%
selectivity of Aβ reduction (Aβ42 vs Aβ40) (Tg2576 mice; Tg2576, oral gavage, 4 hours): selective reductions of Aβ42
total amyloid-β amounts [1]: did not decrease
Aβ42 levels ([1]; H4 cells expressing APP): decrease
EC50 ([1]; read-out: EC50, lowering of Aβ40): 60.7 µM
EC50 ([1]; read-out: EC50, lowering of Aβ42): 13.7 µM
EC50 (APP wild-type cells): 5.9 µM
